According to patent US7833513B2, “Treatment of Alzheimer's Disease” (Rhode Island Hospital, priority 2004, dated 2010):

Assays:
[1] = test system: phospho-GSK-3β, GSK-3β, phospho-Tau, Tau; assay: ic-STZ ± PPAR agonist: Western blot analysis of GSK-3β and Tau; assay type: in vivo, Long Evans rat; conditions: hypothalamus
Protocol: On the same day, sub-sets of the ic-STZ group were given a single intra-peritoneal injection of vehicle (saline), or a PPAR-α (GW7647; 25 ug/Kg), PPAR-δ (L-165,041; 2 μg/Kg), or PPAR-γ (F-L-Leu; 20 μg/Kg) activator (CalBiochem, Carlsbad, Calif.). […] In addition, at 4 weeks of age, memory and learning were evaluated using a Morris Water Maze (R. W. Hickey, M. Akino, S. Strausbaugh, G. M. De Courten-Myers. Use of the Morris water maze and acoustic startle chamber to evaluate neurologic injury after asphyxial arrest in rats. Pediatr Res 39(1) (1996), 77-84). The procedures and use of rats in these experiments were approved by the Lifespan-Rhode Island Hospital IACUC committee.
Western Blot Analysis: Western blot analysis was used to assess the levels of Tau, phospho-Tau, GSK-3β, phospho-GSK-3β, and β-actin in temporal lobe tissue (E. J. Rivera, A. Goldin, N. Fulmer, R. Tavares, J. R. Wands, S. M. de la Monte, J. Alzheimers Dis 8(3) (2005), 247-68). Briefly, samples containing 40 μg protein were fractionated by sodium dodecyl sulfate, polyacrylamide gel electrophoresis (SDS-PAGE) (F. Ausubel, R. Brent, R. Kingston, D. Moore, J. Seidman, J. Smnith, et al. Current Protocols in Molecular Biology. (2000)). and transferred to PVDF membranes. Non-specific binding sites were adsorbed with SuperBlock-TBS (Pierce, Rockford, Ill.). Membranes were incubated over night at 4° C. with primary antibody (0.1-1 μg/ml-individually optimized) diluted in Tris-buffered saline (TBS; 50 mM Tris, 150 mM NaCl, pH 7.4) containing 0.5% bovine serum albumin, 0.05% Tween-20, and 0.025% NaN3 (TBST-BSA). Immunoreactivity was detected using horseradish peroxidase (HRP) conjugated IgG (Pierce, Rockford, Ill.) diluted to 1:50,000 in TBST+0.5% cassein, Western Lightning enhanced chemiluminescence reagents (Perkin Elmer Life Sciences Inc., Boston, Mass.), and digital imaging. Immunoreactivity was quantified using the Kodak Digital Science Imaging Station (NEN Life Sciences, Boston, Mass.).
PPAR Agonist Treatment Reduces ic-STZ-Mediated AD-Type Neurodegeneration: In AD, the neuronal cytoskeletal lesions that correlate with dementia, i.e. neurofibrillary tangles, dystrophic neuritis, and neuropil threads, contain insoluble fibrillar structures that are generated in part from hyper-phosphorylated Tau (K. Iqbal, C. Alonso Adel, S. Chen, M. O. Chohan, E. El-Akkad, C. X. Gong, et al. Tau pathology in Alzheimer disease and other tauopathies. Biochim Biophys Acta 1739(2-3) (2005), 198-210). […] J Alzheimers Dis 7(1) (2005), 63-80). […] Therefore, it was of interest to characterize the effects of PPAR agonists on GSK-3β activity and Tau phosphorylation in ic-STZ-treated brains. The levels of phospho-GSK-3β, GSK-3β, phospho-Tau, Tau, and β-actin ([…]) were examined in temporal lobe and hypothalamus homogenates by Western blot analysis. Immunoreactivity was detected and quantified by digital imaging, and the mean levels of protein expression and ratios of phospho-GSK-3β/GSK-3β and phospho-Tau/Tau measured in 4 replicate samples are depicted graphically (FIG. 31). Phospho-GSK-3β immunoreactivity was detected with antibodies directed against the Ser21/9 motif, corresponding to the inactivate form of the kinase.

[2] = test system: cerebral cortex and hippocampus glucose and glycogen metabolism; conditions: adult rats, intracerebroventricular injection; cited from earlier work
[3] = test system: IGF-I receptor; assay type: in vivo, Long Evans rat; conditions: temporal lobe membrane extracts
Protocol: Membrane proteins were extracted from fresh frozen temporal lobe tissue (˜100 mg) by Polytron (Glen Mils Inc., Clifton, N.J.) homogenization in 5 volumes of NP-40 lysis buffer (50 mM Tris-HCl, pH 7.5, 150 mM NaCl, 1 mM EDTA, 2 mM EGTA, 1% NP-40) containing protease (1 mM PMSF, 0.1 mM TPCK, 1 μg/ml aprotinin, 1 μg/ml pepstatin A, 0.5 μg/ml leupeptin, 1 mM NaF, 1 mM Na4P2O7) and phosphatase (2 mM Na3VO4) inhibitors. The supernatant fractions obtained after centrifuging the samples at 10,000×g for 15 minutes at 4° C. were used in the binding assays. […] Protein concentrations were measured with the bicinchoninic acid (BCA) assay (Pierce, Rockford, Ill.).
Competitive equilibrium binding assays were used to assess growth factor binding in relation to ic-STZ-treatment. […]
All reactions were performed in 1.5 ml Eppendorff tubes, and the incubations were performed at 4° C. for 16 hours with gentle platform agitation. […] Each sample was counted for 1 minute in an LKB CompuGamma CS Gamma counter. Specific binding was calculated by subtracting fmols of non-specific binding, i.e. amount bound in the presence of excess cold ligand, from total fmols bound (absence of unlabeled competitive ligand). The binding assay results were analyzed using the GraphPad Prism 4 software (GraphPad Software, Inc., San Diego, Calif.).

[4] = test system: GFAP, GSK-3β, phospho-GSK-3β, ubiquitin, tau, phospho-tau, β-actin; assay: ic-STZ model: Western blot analysis of temporal lobe tissue; assay type: in vivo, Long Evans rat; conditions: 40 mg/kg ic-STZ, Mean±S.E.M.
Protocol: Western blot analysis was used to assess the levels of Akt, phospho-Akt, GSK-3β, phospho-GSK-3β, Tau, and β-actin. […] Protein concentration was determined using the bicinchoninic acid (BCA) assay (Pierce, Rockford, Ill.). Samples containing 100 μg of protein were fractionated by sodium dodecyl sulfate, polyacrylamide gel electrophoresis (SDS-PAGE). (Ausubel et al., Current Protocols in Molecular Biology (2000)). Proteins were transferred to Immobilon-P (Millipore Corporation, Bedford, Mass.) PVDF membranes and non-specific binding sites were adsorbed with SuperBlock-TBS (Pierce, Rockford, Ill.). Membranes were incubated over night at 4° C. with primary antibody (0.5-1 μg/ml) diluted in Tris-buffered saline (TBS; 50 mM Tris, 150 mM NaCl, pH 7.4) containing 1% bovine serum albumin and 0.05% Tween-20 (TBST-BSA). Immunoreactivity was detected using horseradish peroxidase (HRP) conjugated IgG (Pierce, Rockford, Ill.), Western Lightning chemiluminescence reagents (Perkin Elmer Life Sciences Inc., Boston, Mass.), and film autoradiography. All incubations were performed using gentle platform agitation. Immunoreactivity was quantified using the Kodak Digital Science Imaging Station (NEN Life Sciences, Boston, Mass.).
Western blot analysis was used to assess the levels of tau, phospho-tau, ubiquitin, GSK-3β, phospho-GSK-3β, GFAP, and β-actin as described above.
Studies were performed to determine if ic-STZ-induced neurodegeneration was associated with increased activation of GSK-3β (reduced phospho-GSK-3β/total GSK-3β ratio) and increased levels of phospho-tau. Since characteristic features of AD-type neurodegeneration also include increased ubiquitination of proteins, including tau (Godbolt et al., Arch. Neurol. 62:1097 (2005); Kosik et al., Biochim. Biophys. Acta 1739:298 (2005); de Vrij et al., Prog. Neurobiol. 74:249 (2004)) and gliosis associated with cell loss, Western blot analysis was used to measure ubiquitin and GFAP immunoreactivity as well. β-actin expression was measured as a […].
Values correspond to arbitrary densitometry units (Mean±S.E.M.). Results were analyzed using Student t-tests.

CC(C)(Sc1ccc(CCN(CCCCC2CCCCC2)C(=O)NC2CCCCC2)cc1)C(=O)O [PPAR-α agonist, GW7647]
phospho-GSK-3β level [1]: significantly increased
phospho-Tau level relative to control [1]: significantly higher
total Tau protein level [1]: slightly higher levels of Tau relative to all other groups

CC(C)C[C@H](NC(=O)OCC1c2ccccc2-c2ccccc21)C(=O)O [PPAR-γ agonist, F-L-Leu]
phospho-GSK-3β level [1]: significantly reduced
phospho-Tau level relative to control [1]: moderately reduced

CCCc1c(OCCCOc2ccc(OCC(=O)O)cc2)ccc(C(C)=O)c1O [PPAR-δ agonist, L-165,041]
phospho-GSK-3β level [1]: significantly increased
phospho-Tau level relative to control [1]: moderately reduced

CN(N=O)C(=O)NC1C(O)OC(CO)C(O)C1O (stereo not shown) [STZ]
chronic reduction in glucose and glycogen metabolism [2]: 10-30%
IGF-I binding vs control [3]: increased, although the difference was not statistically significant
GFAP protein (Western blot) [4]: 983591 ± 113549 arbitrary densitometry units
GSK-3β protein (Western blot) [4]: 149945 ± 15588 arbitrary densitometry units
Tau protein (Western blot) [4]: 686442 ± 65138 arbitrary densitometry units
Ubiquitin protein (Western blot) [4]: 1390824 ± 133586 arbitrary densitometry units
p-GSK-3β protein (Western blot) [4]: 2811 ± 296 arbitrary densitometry units
p-Tau protein (Western blot) [4]: 3378 ± 920 arbitrary densitometry units
β-Actin protein (Western blot, negative control) [4]: 196548 ± 14314 arbitrary densitometry units
